Results as given in paper PMC10813319 (Biomedicines, 2024).

Test system: PrP^C overexpression-induced cofilactin rods in rat hippocampal neurons

## C[C@H](O)[C@@H](N)C(=O)N[C@@H](C(=O)N[C@H](CC(N)=O)C(=O)N[C@H](Cc1ccc(O)cc1)C(=O)N[C@@H](C(=O)O)[C@H](C)O)[C@H](C)O [RAP-103]
  Rod formation induced by PrP^C overexpression, 4-day treatment: blocked
  Rod formation induced by PrP^C overexpression, treatment for last day only: reversed
